# Where a name gives a salt, the structure may show the parent alone.
# Legend:
# [1] = test system: bicalutamide resistant human prostate cancer cell line established from LNCaP.FGC (LNCaP-Bic); test: Growth inhibition of LNCaP-Bic cells, WST-8 assay; assay type: cell-based; settings: 120 h, 5 days with test compound
# Protocol: (§1) The growth inhibition on a bicalutamide resistant human prostate cancer cell line established from LNCaP.FGC (LNCaP-Bic) (Hobisch A, et al. Prostate. 2006; 66(4):413-20.) was determined by a WST-8 assay according to the method of Singh A K, et al. (Cancer Lett. 1996 Oct. 1; 107(1): 109-15.). In this method, LNCaP-Bic cells were seeded in RPMI 1640 medium containing 10% fetal bovine serum in a 96-well microplate and incubated at 37° C. for 24 hours in the presence of 5% carbon dioxide. Then, the test compound was added and the cells were incubated for another 5 days. After incubation, a 15-μL volume of WST-8 (2-(2-methoxy-4-nitrophenyl)-3-(4-nitrophenyl)-5-(2,4-[…])-2H-tetrazolium, monosodium salt) was added. After the incubation for the time, the color reaction was stopped by adding 15 μL of 1% SDS (sodium dodecyl sulfate) solution and the optical density was determined at the measurement wavelength of 450 nm and the reference wavelength of 630 nm, and the difference was calculated. The cell growth activity in each well was defined as the value determined by subtracting the OD in the control well not containing cells (the difference in absorbance between 450 nm and 630 nm) from that in the test well.
# (§2) The 50% inhibitory concentration (IC50 (nM)) of the test compound was determined by comparing the cell growth activity in the well containing the test compound with that of the control not containing the test compound.
# [2] = test system: human prostate (carcinoma) cell line (LNCaP.FGC); test: Growth inhibition of LNCaP.FGC cells, WST-8 assay; assay type: cell-based; settings: 120 h, 5 days with test compound
# Protocol: as §1, §2
# The growth inhibition on a human prostate (carcinoma) cell line (LNCaP.FGC) (van Bokhoven A, et al. Prostate. 2003; 57(3):205-25.) was also determined by the above method.
# [3] = test system: human prostate (adenocarcinoma) cell line (VcaP); test: Growth inhibition of VcaP cells, WST-8 assay; assay type: cell-based; settings: 120 h, 5 days with test compound
# Protocol: as §1, §2
# The growth inhibition on a human prostate (adenocarcinoma) cell line (VcaP) (Korenchuk S, et al. In Vivo. 2001; 15(2):163-8.) was also determined by the above method.
# [4] = test system: human prostate (carcinoma) cell line (DU 145); test: Growth inhibition of DU 145 cells, WST-8 assay; assay type: cell-based; settings: 120 h, 5 days with test compound
# Protocol: as §1, §2
# The growth inhibition on a human prostate (carcinoma) cell line (DU 145) (van Bokhoven A, et al. Prostate. 2003; 57(3):205-25.) was also determined by the above method.
# [5] = test system: human prostate (adenocarcinoma) cell line (PC-3); test: Growth inhibition of PC-3 cells, WST-8 assay; assay type: cell-based; settings: 120 h, 5 days with test compound
# Protocol: as §1, §2
# The growth inhibition on a human prostate (adenocarcinoma) cell line (PC-3) (van Bokhoven A, et al. Prostate. 2003; 57(3):205-25.) was also determined by the above method.
SMILES,IC50 [1],IC50 [2],IC50 [3],IC50 [4],IC50 [5],melting point
"COc1ccc(COc2ccc(Oc3c(C)cc(/C=C/C(=O)N4CCN(Cc5ccc(/C=C/COc6ccc(C)cc6)cc5)CC4)cc3C)nc2)cc1 [Example 1, (2E)-3-[4-({5-[(4-methoxybenzyl)oxy]pyridin-2-yl}oxy)-3,5-dimethylphenyl]-1-(4-{4-[(1E)-3-(4-methylphenoxy)prop-1-en-1-yl]benzyl}piperazin-1-yl)prop-2-en-1-one]",< 10 nM,< 10 nM,< 10 nM,< 10 nM,< 10 nM,130 to 132 °C
"Cc1ccc(COc2ccc(Oc3c(C)cc(/C=C/C(=O)N4CCN(Cc5ccc(CCOc6ccc(F)cc6)cc5)[C@@H](C)C4)cc3Cl)nc2)cc1 [Example 392, (E)-3-[3-chloro-5-methyl-4-({5-[(4-methylbenzyl)oxy]pyridin-2-yl}oxy)phenyl]-1-[(3S)-4-{4-[2-(4-fluorophenoxy)ethyl]benzyl}-3-methylpiperazin-1-yl]prop-2-en-1-one]",< 10 nM,< 10 nM,< 10 nM,< 10 nM,< 10 nM,–
"Cc1ccc(COc2ccc(Oc3c(C)cc(/C=C/C(=O)N4CCN(Cc5ccc(CCOc6ccc(Cl)cc6)cc5)CC4)cc3Cl)nc2)cc1F.Cl [Example 427, (E)-3-[3-Chloro-4-({5-[(3-fluoro-4-methylbenzyl)oxy]pyridin-2-yl}oxy)-5-methylphenyl]-1-(4-{4-[2-(4-chlorophenoxy)ethyl]benzyl}piperazin-1-yl)prop-2-en-1-one hydrochloride]",< 10 nM,< 10 nM,< 10 nM,< 10 nM,< 10 nM,224.7 to 224.8 °C
"Cc1cc(/C=C/C(=O)N2CCN(Cc3ccc(CCOc4ccc(F)cc4)cc3)CC2)cc(Cl)c1Oc1ccc(OCc2ccccc2F)cn1.Cl [Example 447, (E)-3-[3-Chloro-4-({5-[(2-fluorobenzyl)oxy]pyridin-2-yl}oxy)-5-methylphenyl]-1-(4-{4-[2-(4-fluorophenoxy)ethyl]benzyl}piperazin-1-yl)prop-2-en-1-one hydrochloride]",< 10 nM,< 10 nM,< 10 nM,< 10 nM,< 10 nM,224 to 224.5 °C
"Cc1ccc(OCCc2ccc(CN3CCN(C(=O)/C=C/c4cc(C)c(Oc5ccc(OCc6ccccc6F)cn5)c(Cl)c4)CC3)cc2)cc1 [Example 451, (E)-3-[3-Chloro-4-({5-[(2-fluorobenzyl)oxy]pyridin-2-yl}oxy)-5-methylphenyl]-1-(4-{4-[2-(4-methylphenoxy)ethyl]benzyl}piperazin-1-yl)prop-2-en-1-one hydrochloride]",< 10 nM,< 10 nM,< 10 nM,< 10 nM,< 10 nM,–
"Cc1ccc(OCCc2ccc(CN3CCN(C(=O)/C=C/c4cc(C)c(Oc5ccc(OCc6ccccc6Cl)cn5)c(Cl)c4)CC3)cc2)cc1 [Example 452, (E)-3-[3-Chloro-4-({5-[(2-chlorobenzyl)oxy]pyridin-2-yl}oxy)-5-methylphenyl]-1-(4-{4-[2-(4-methylphenoxy)ethyl]benzyl}piperazin-1-yl)prop-2-en-1-one hydrochloride]",< 10 nM,< 10 nM,< 10 nM,< 10 nM,< 10 nM,–
"Cc1cc(/C=C/C(=O)N2CCN(Cc3ccc(CCOc4ccc(Cl)cc4)cc3)CC2)cc(Cl)c1Oc1ccc(OCc2ccccc2Cl)cn1 [Example 466, (E)-3-[3-Chloro-4-({5-[(2-chlorobenzyl)oxy]pyridin-2-yl}oxy)-5-methylphenyl]-1-(4-{4-[2-(4-chlorophenoxy)ethyl]benzyl}piperazin-1-yl)prop-2-en-1-one hydrochloride]",< 10 nM,< 10 nM,< 10 nM,< 10 nM,< 10 nM,–
"Cc1cc(/C=C/C(=O)N2CCN(Cc3ccc(CCOc4ccc(C(C)C)cc4)cc3)CC2)ccc1Oc1ccc(OCc2ccccc2Cl)cn1.Cl [Example 507, (E)-3-[4-({5-[(2-Chlorobenzyl)oxy]pyridin-2-yl}oxy)-3-methylphenyl]-1-[4-(4-{2-[4-(propan-2-yl)phenoxy]ethyl}benzyl)piperazin-1-yl]prop-2-en-1-one hydrochloride]",< 10 nM,< 10 nM,< 10 nM,< 10 nM,< 10 nM,178.2 to 178.9 °C
"CC(C)c1ccc(OCCc2ccc(CN3CCN(C(=O)/C=C/c4ccc(Oc5ccc(OCc6ccc(C#N)cc6)cn5)c(F)c4)CC3)cc2)cc1 [Example 593, 4-({[6-(2-Fluoro-4-{(E)-3-oxo-3-[4-(4-{2-[4-(propan-2-yl)phenoxy]ethyl}benzyl)piperazin-1-yl]prop-1-en-1-yl}phenoxy)pyridin-3-yl]oxy}methyl)benzonitrile hydrochloride]",< 10 nM,< 10 nM,< 10 nM,< 10 nM,< 10 nM,–
"CCOc1cccc(OCCc2ccc(CN3CCN(C(=O)/C=C/c4cc(C)c(Oc5ccc(OCc6cncs6)cn5)c(C)c4)CC3)cc2)c1.Cl [Example 594, (E)-3-(3,5-Dimethyl-4-{[5-(1,3-thiazol-5-ylmethoxy)pyridin-2-yl]oxy}phenyl)-1-(4-{4-[2-(3-ethoxyphenoxy)ethyl]benzyl}piperazin-1-yl)prop-2-en-1-one hydrochloride]",< 10 nM,< 10 nM,< 10 nM,< 10 nM,< 10 nM,190.4 to 191.8 °C
"Cc1cc(/C=C/C(=O)N2CCN(Cc3ccc(CCOc4ccc(C(C)C)cc4)cc3)CC2)cc(C)c1Oc1ccc(OCc2cncs2)cn1.Cl [Example 595, (E)-3-(3,5-Dimethyl-4-{[5-(1,3-thiazol-5-ylmethoxy)pyridin-2-yl]oxy}phenyl)-1-[4-(4-{2-[4-(propan-2-yl)phenoxy]ethyl}benzyl)piperazin-1-yl]prop-2-en-1-one hydrochloride]",< 10 nM,< 10 nM,< 10 nM,< 10 nM,< 10 nM,199.2 to 200.9 °C
"Cc1ccc(OCCc2ccc(CN3CCN(C(=O)/C=C/c4cc(C)c(Oc5ccc(OCc6cscn6)cn5)c(C)c4)CC3)cc2)cc1 [Example 601, (E)-3-(3,5-Dimethyl-4-{[5-(1,3-thiazol-4-ylmethoxy)pyridin-2-yl]oxy}phenyl)-1-(4-{4-[2-(4-methylphenoxy)ethyl]benzyl}piperazin-1-yl)prop-2-en-1-one hydrochloride]",< 10 nM,< 10 nM,< 10 nM,< 10 nM,< 10 nM,–
"COc1ccc(COc2ccc(Oc3c(C)cc(/C=C/C(=O)N4CCN(Cc5ccc(CCOc6ccc(C)cc6)cc5C)CC4)cc3C)nc2)cc1 [Example 611, (E)-3-[4-({5-[(4-Methoxybenzyl)oxy]pyridin-2-yl}oxy)-3,5-dimethylphenyl]-1-(4-{2-methyl-4-[2-(4-methylphenoxy)ethyl]benzyl}piperazin-1-yl)prop-2-en-1-one hydrochloride]",< 10 nM,< 10 nM,< 10 nM,< 10 nM,< 10 nM,–
"Cc1cc(/C=C/C(=O)N2CCN(Cc3ccc(CCOc4ccc(C(F)(F)F)cn4)cc3)CC2)cc(Cl)c1Oc1ccc(OCc2ccc(C#N)cc2)cn1.Cl [Example 613, 4-{[(6-{2-Chloro-6-methyl-4-[(E)-3-oxo-3-{4-[4-(2-{[5-(trifluoromethyl)pyridin-2-yl]oxy}-ethyl)benzyl]piperazin-1-yl}prop-1-en-1-yl]phenoxy}pyridin-3-yl)oxy]methyl}benzonitrile hydrochloride]",< 10 nM,< 10 nM,< 10 nM,< 10 nM,< 10 nM,193.7 to 194.2 °C
"Cc1ccc(OCCCc2ccc(CN3CCN(C(=O)/C=C/c4cc(C)c(Oc5ccc(OCc6ccc(C#N)cc6)cn5)c(Cl)c4)CC3)cc2)cc1.Cl [Example 621, 4-{[(6-{2-Chloro-6-methyl-4-[(E)-3-(4-{4-[3-(4-methylphenoxy)propyl]benzyl}piperazin-1-yl)-3-oxoprop-1-en-1-yl]phenoxy}pyridin-3-yl)oxy]methyl}benzonitrile hydrochloride]",< 10 nM,< 10 nM,< 10 nM,< 10 nM,< 10 nM,193 to 194.8 °C
